The text below walks through data of patent publication US20230088214A1, “GLYCOLATE OXIDASE INHIBITORS FOR THE TREATMENT OF DISEASE” (BIOMARIN PHARMACEUTICAL INC., priority 2019, published 2023).

Where two headings read alike, the source gives them in different places. Where only a bound is given, the exact number is not on record here.

For the test, the target named is T1, GO (Homo sapiens, UniProt Q9UJM8).
T1 sequence (Q9UJM8 1-370): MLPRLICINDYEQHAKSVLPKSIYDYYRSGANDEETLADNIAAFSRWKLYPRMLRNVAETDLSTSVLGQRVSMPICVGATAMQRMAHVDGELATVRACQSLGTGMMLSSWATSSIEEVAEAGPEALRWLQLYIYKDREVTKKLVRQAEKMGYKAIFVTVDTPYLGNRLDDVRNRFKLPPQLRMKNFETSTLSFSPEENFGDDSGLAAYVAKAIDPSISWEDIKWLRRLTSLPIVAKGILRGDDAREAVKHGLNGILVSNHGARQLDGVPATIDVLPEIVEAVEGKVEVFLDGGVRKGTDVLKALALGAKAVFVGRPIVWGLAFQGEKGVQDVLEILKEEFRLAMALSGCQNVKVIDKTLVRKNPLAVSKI
The test can be described thus: GO Enzymatic Assay (Assay 1). The class given is biochemical. Set-up: purchased Novus Biologicals NBP1-72412. The procedure: Assay 1: GO Enzymatic Assay
GO was incubated with its substrate, glycolate, in 50 mM potassium phosphate buffer, pH 7. […] The enzyme was optimized and the kinetics was determined.
Compound inhibition was determined by adding various concentrations of inhibitors in the GO enzyme assay. The IC50 value for each measured compound was generated from sigmoidal dose-response (variable slope) curves with GraphPad Prism software (GraphPad Software, Inc., San Diego, Calif.) using the percent inhibition of GO activity relative to DMSO control.

Where [1] appears, read: human GO, glycolate substrate, pH 7, percent inhibition relative to DMSO control, read-out: Range of IC50 values calculated from the enzymatic assays (Assay 1).
Where [2] appears, read: Table 4, class symbols without asterisk, GO Enzymatic Assay (Assay 1), read-out: Range.

With `C[N+](C)(C)CCOC(=O)c1[nH]nnc1Sc1ccc(-c2ccc(OC(F)(F)F)cc2)cc1` [Compound 38, N,N,N-trimethyl-2-((4-((4′-(trifluoromethoxy)-[1,1′-biphenyl]-4-yl)thio)-1H-1,2,3-triazole-5-carbonyl)oxy)ethan-1-aminium iodide], under setting [1], the IC50 is 1000 to 10000 nM.
With `O=C(O)c1[nH]nnc1O[C@H]1CC[C@H](c2ccc(OC(F)(F)F)cc2)CC1` [Compound 272-1, 4-(((trans)-4-(4-(trifluoromethoxy)phenyl)cyclohexyl)oxy)-1H-1,2,3-triazole-5-carboxylic acid], the IC50 under setting [1] was less than 100 nM.
As for `O=C(O)c1[nH]nnc1O[C@H]1CC[C@@H](c2ccc(OC(F)(F)F)cc2)CC1` [Compound 272-2, 4-(((cis)-4-(4-(trifluoromethoxy)phenyl)cyclohexyl)oxy)-1H-1,2,3-triazole-5-carboxylic acid], the IC50 under setting [1] was less than 100 nM.
Consider `O=C(O)c1[nH]nnc1Sc1ccc(-c2ccc(N3CCCCC3)c(Cl)c2)cc1` [Compound 376, 4-((3′-chloro-4′-(piperidin-1-yl)-[1,1′-biphenyl]-4-yl)thio)-1H-1,2,3-triazole-5-carboxylic acid 2,2,2-trifluoroacetate], for which, under setting [2], the IC50 was less than 100 nM.
Still for that read-out and setting: the value for `O=C(O)c1[nH]nnc1CS[C@H]1CC[C@@H](c2cc(Cl)cc(Cl)c2)CC1` [Compound 377, 4-((((cis)-4-(3,5-dichlorophenyl)cyclohexyl)thio)methyl)-1H-1,2,3-triazole-5-carboxylic acid] was less than 100 nM; that for `O=C(O)c1[nH]nnc1O[C@H]1CC[C@@H](c2ccc(N3CCCCC3=O)cc2)CC1` [Compound 379, 4-(((cis)-4-(4-(2-oxopiperidin-1-yl)phenyl)cyclohexyl)oxy)-1H-1,2,3-triazole-5-carboxylic acid] was less than 100 nM.
Consider `O=C(O)c1[nH]nnc1Oc1cccc(OC2CCCCC2)c1` [Compound 380, 4-(3-(cyclohexyloxy)phenoxy)-1H-1,2,3-triazole-5-carboxylic acid 2,2,2-trifluoroacetate], for which the IC50 under setting [2] is less than 100 nM.
Take `O=C(O)c1[nH]nnc1Oc1ccc(Cl)c(OC2CCCC2)c1` [Compound 381, 4-(4-chloro-3-(cyclopentyloxy)phenoxy)-1H-1,2,3-triazole-5-carboxylic acid 2,2,2-trifluoroacetate]: under setting [2], the IC50 is less than 100 nM.
On the same count and under the same terms, the value for `O=C(O)c1[nH]nnc1Sc1cccc(OC2CCCCC2)c1` [Compound 382, 4-((3-(cyclohexyloxy)phenyl)thio)-1H-1,2,3-triazole-5-carboxylic acid 2,2,2-trifluoroacetate] was 100 to 1000 nM.
Regarding `O=C(O)c1[nH]nnc1CSC1CCN(c2cc(Cl)ccc2Cl)CC1` [Compound 383, 4-(((1-(2,5-dichlorophenyl)piperidin-4-yl)thio)methyl)-1H-1,2,3-triazole-5-carboxylic acid 2,2,2-trifluoroacetate], under setting [2], the IC50 was less than 100 nM.
`O=C(O)c1[nH]nnc1CSC1CCN(c2ccc(Cl)c(Cl)c2)CC1` [Compound 384, 4-(((1-(3,4-dichlorophenyl)piperidin-4-yl)thio)methyl)-1H-1,2,3-triazole-5-carboxylic acid 2,2,2-trifluoroacetate]: the IC50 under setting [2] is less than 100 nM.
The same measure, in the same setting: the value for `O=C(O)c1[nH]nnc1SC1CCN(c2cc(Cl)ccc2OC(F)(F)F)CC1` [Compound 386, 4-((1-(5-chloro-2-(trifluoromethoxy)phenyl)piperidin-4-yl)thio)-1H-1,2,3-triazole-5-carboxylic acid 2,2,2-trifluoroacetate] was less than 100 nM; that for `O=C(O)c1[nH]nnc1Oc1ccc(-c2ccc(Cl)cc2)c(OCC2CCCC2)c1` [Compound 387, 4-((4′-chloro-2-(cyclopentylmethoxy)-[1,1′-biphenyl]-4-yl)oxy)-1H-1,2,3-triazole-5-carboxylic acid 2,2,2-trifluoroacetate] was less than 100 nM.
With `O=C(O)c1[nH]nnc1Oc1ccc(C2CCN(C3CCCCC3)CC2)cc1` [Compound 388, 4-(4-(1-cyclohexylpiperidin-4-yl)phenoxy)-1H-1,2,3-triazole-5-carboxylic acid 2,2,2-trifluoroacetate], under setting [2], the IC50 lay within 1000 to 10000 nM.
Still for that read-out and setting: the result for `N#Cc1ccc(Oc2nn[nH]c2C(=O)O)cc1OCc1ccc(F)cc1` [Compound 390, 4-(4-cyano-3-((4-fluorobenzyl)oxy)phenoxy)-1H-1,2,3-triazole-5-carboxylic acid] reads less than 100 nM.
Still for that read-out and setting: the value for `N#Cc1ccc(-c2ccc(Oc3nn[nH]c3C(=O)O)cc2Cl)cc1` [Compound 394, 4-((2-chloro-4′-cyano-[1,1′-biphenyl]-4-yl)oxy)-1H-1,2,3-triazole-5-carboxylic acid] was less than 100 nM; that for `O=C(O)c1[nH]nnc1O[C@H]1CC[C@H](c2cc(OC(F)(F)F)ccc2Cl)CC1` [Compound 395, 4-(((trans)-4-(2-chloro-5-(trifluoromethoxy)phenyl)cyclohexyl)oxy)-1H-1,2,3-triazole-5-carboxylic acid] was less than 100 nM; that for `O=C(O)c1[nH]nnc1O[C@H]1CC[C@@H](c2cc(OC(F)(F)F)ccc2Cl)CC1` [Compound 396, 4-(((cis)-4-(2-chloro-5-(trifluoromethoxy)phenyl)cyclohexyl)oxy)-1H-1,2,3-triazole-5-carboxylic acid] was less than 100 nM.
The same measure, in the same setting: the value for `NC(=O)c1ccc(-c2ccc(Oc3nn[nH]c3C(=O)O)cc2)cc1` [Compound 397, 4-((4′-carbamoyl-[1,1′-biphenyl]-4-yl)oxy)-1H-1,2,3-triazole-5-carboxylic acid] was less than 100 nM; that for `O=C(O)c1[nH]nnc1Sc1ccc(-c2ccc(Cl)cc2)c(OCC2CCCC2)c1` [Compound 398, 4-((4′-chloro-2-(cyclopentylmethoxy)-[1,1′-biphenyl]-4-yl)thio)-1H-1,2,3-triazole-5-carboxylic acid 2,2,2-trifluoroacetate] was less than 100 nM.
Turning to `O=C(O)c1[nH]nnc1Oc1ccc(Cl)c(OC2CCCCC2)c1` [Compound 399, 4-(4-chloro-3-(cyclohexyloxy)phenoxy)-1H-1,2,3-triazole-5-carboxylic acid 2,2,2-trifluoroacetate], the IC50 under setting [2] is less than 100 nM.
For `O=C(O)c1[nH]nnc1O[C@H]1CC[C@H](c2ccc(-n3cnnc3)cc2)CC1` [Compound 403, 4-(((trans)-4-(4-(4H-1,2,4-triazol-4-yl)phenyl)cyclohexyl)oxy)-1H-1,2,3-triazole-5-carboxylic acid], the IC50 under setting [2] was less than 100 nM.
For the compound `N#Cc1ccc([C@H]2C[C@H](Oc3nn[nH]c3C(=O)O)C2)cc1` [Compound 404, 4-((trans)-3-(4-cyanophenyl)cyclobutoxy)-1H-1,2,3-triazole-5-carboxylic acid 2,2,2-trifluoroacetate], the IC50 under setting [2] is less than 100 nM.
Regarding `O=C(O)c1[nH]nnc1O[C@H]1CC[C@H](c2ccc(-n3cncn3)cc2)CC1` [Compound 405, 4-(((trans)-4-(4-(1H-1,2,4-triazol-1-yl)phenyl)cyclohexyl)oxy)-1H-1,2,3-triazole-5-carboxylic acid], under setting [2], the IC50 was less than 100 nM.
The same measure, in the same setting: the result for `O=C(O)c1[nH]nnc1O[C@H]1CC[C@H](c2ccc3ncccc3c2)CC1` [Compound 409, 4-(((trans)-4-(quinolin-6-yl)cyclohexyl)oxy)-1H-1,2,3-triazole-5-carboxylic acid 2,2,2-trifluoroacetate] reads less than 100 nM; that for `O=C(O)c1[nH]nnc1S[C@H]1CC[C@H](c2ccc3ncccc3c2)CC1` [Compound 410, 4-(((trans)-4-(quinolin-6-yl)cyclohexyl)thio)-1H-1,2,3-triazole-5-carboxylic acid 2,2,2-trifluoroacetate], less than 100 nM; that for `O=C(O)c1[nH]nnc1S[C@H]1CC[C@H](c2cc(OC(F)(F)F)ccc2Cl)CC1` [Compound 411, 4-(((trans)-4-(2-chloro-5-(trifluoromethoxy)phenyl)cyclohexyl)thio)-1H-1,2,3-triazole-5-carboxylic acid], less than 100 nM.
The same measure, in the same setting: the value for `O=C(O)c1[nH]nnc1O[C@H]1CC[C@H](c2ccc(N3CCCC3=O)cc2)CC1` [Compound 412, 4-(((trans)-4-(4-(2-oxopyrrolidin-1-yl)phenyl)cyclohexyl)oxy)-1H-1,2,3-triazole-5-carboxylic acid] was less than 100 nM; that for `CN(C)C(=O)c1ccc([C@H]2CC[C@H](Oc3nn[nH]c3C(=O)O)CC2)cc1` [Compound 414, 4-(((trans)-4-(4-(dimethylcarbamoyl)phenyl)cyclohexyl)oxy)-1H-1,2,3-triazole-5-carboxylic acid 2,2,2-trifluoroacetate] was less than 100 nM.
As for `O=C(O)c1[nH]nnc1O[C@H]1CC[C@H](c2ccc(C(=O)N3CCOCC3)cc2)CC1` [Compound 416, 4-(((trans)-4-(4-(morpholine-4-carbonyl)phenyl)cyclohexyl)oxy)-1H-1,2,3-triazole-5-carboxylic acid 2,2,2-trifluoroacetate], the IC50 under setting [2] was less than 100 nM.
For the compound `O=C(O)c1[nH]nnc1O[C@H]1CC[C@H](c2ccc(C(=O)N3CCCCC3)cc2)CC1` [Compound 417, 4-(((trans)-4-(4-(piperidine-1-carbonyl)phenyl)cyclohexyl)oxy)-1H-1,2,3-triazole-5-carboxylic acid 2,2,2-trifluoroacetate], the IC50 under setting [2] is less than 100 nM.
